Legend:
[1] = target: T1, Nav1.7 (or SCN9A) channel (Homo sapiens, UniProt Q15858); assay: Nav1.7 (hSCN9A) block in HEK cells, PatchXpress 7000 automated electrophysiology, estimated IC50 (EIC50); type: cell-based; conditions: PatchXpress assay; HEK cells stably transfected with hSCN9A, voltage-clamped at V1/2 of inactivation
T1 construct: expressed in transfected cells
How it was run: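 Stable hSCN9A HEK cells voltage-clamped at empirically determined inactivation V1/2 (8 s prepulse), current activated by 20 msec step to 0 mV; % inhibition from current before vs after compound. EIC50 derived from single-point data as concentration × (100−%inhibition)/%inhibition, excluding <20% and >80% inhibition; PatchXpress unless stated.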

[2] = target: T1, Nav1.7 (or SCN9A) channel; assay: Nav1.7 (hSCN9A) block in HEK cells, Ionworks Quattro automated electrophysiology; type: cell-based; conditions: Ionworks Quattro assay (IW); HEK cells stably transfected with hSCN9A; read-out: Nav1.7 EIC50 (IW)
Protocol: The ability of the compounds of formula (I) to block the Nav1.7 (or SCN9A) channel were measured using the assay described below.
Human Embryonic Kidney (HEK) cells were transfected with an hSCN9A construct using lipofectamine reagent (Invitrogen), using standard techniques. Cells stably expressing the hSCN9A constructs were identified by their resistance to G-418 (400 μg/ml). Clones were screened for expression using the whole-cell voltage-clamp technique.
HEK cells stably transfected with hSCN9A were maintained in DMEM medium supplemented with 10% heat-inactivated fetal bovine serum and 400 μg/ml G-418 in an incubator at 37° C. with a humidified atmosphere of 10% CO2. For HTS, cells were harvested from flasks by trypsinization and replated in an appropriate multi-well plate (typically 96 or 384 wells/plate) such that confluence would be achieved within 24 hours of plating. For electrophysiological studies, cells were removed from the culture flask by brief trypsinization and re-plated at low density onto glass cover slips. Cells were typically used for electrophysiological experiments within 24 to 72 hours after plating.
Electrophysiological assays were also conducted using the lonworks Quattro automated electrophysiological platform (Molecular Devices Corp). Intracellular and extracellular solutions were as described above with the following changes, 120 μg/ml amphotericin was added to the intracellular solution to perforate the membrane and allow electrical access to the cells. hSCN9A cells were grown and harvested as for PatchXpress and cells were resuspended in extracellular solution at a concentration of 1×10^6 cells/ml. The onboard liquid handling facility of the Ionworks Quattro was used for dispensing cells and application of test compounds. A voltage protocol was then applied that comprised of a voltage step to fully inactivate the sodium channels, followed by a brief hyperpolarized recovery period to allow partial recovery from inactivation for unblocked sodium channels, followed by a test depolarized voltage step to assess magnitude of inhibition by test compound. Compound effect was determined based on current amplitude difference between the pre-compound addition and post-compound addition scans.
Compounds of the Examples were tested in the assays described above and found to have the Nav1.7 EIC50 (μM) values specified in the table below. All data are derived from the PatchXpress assay unless explicitly stated otherwise.

T1 sequence (Q15858 whole entry): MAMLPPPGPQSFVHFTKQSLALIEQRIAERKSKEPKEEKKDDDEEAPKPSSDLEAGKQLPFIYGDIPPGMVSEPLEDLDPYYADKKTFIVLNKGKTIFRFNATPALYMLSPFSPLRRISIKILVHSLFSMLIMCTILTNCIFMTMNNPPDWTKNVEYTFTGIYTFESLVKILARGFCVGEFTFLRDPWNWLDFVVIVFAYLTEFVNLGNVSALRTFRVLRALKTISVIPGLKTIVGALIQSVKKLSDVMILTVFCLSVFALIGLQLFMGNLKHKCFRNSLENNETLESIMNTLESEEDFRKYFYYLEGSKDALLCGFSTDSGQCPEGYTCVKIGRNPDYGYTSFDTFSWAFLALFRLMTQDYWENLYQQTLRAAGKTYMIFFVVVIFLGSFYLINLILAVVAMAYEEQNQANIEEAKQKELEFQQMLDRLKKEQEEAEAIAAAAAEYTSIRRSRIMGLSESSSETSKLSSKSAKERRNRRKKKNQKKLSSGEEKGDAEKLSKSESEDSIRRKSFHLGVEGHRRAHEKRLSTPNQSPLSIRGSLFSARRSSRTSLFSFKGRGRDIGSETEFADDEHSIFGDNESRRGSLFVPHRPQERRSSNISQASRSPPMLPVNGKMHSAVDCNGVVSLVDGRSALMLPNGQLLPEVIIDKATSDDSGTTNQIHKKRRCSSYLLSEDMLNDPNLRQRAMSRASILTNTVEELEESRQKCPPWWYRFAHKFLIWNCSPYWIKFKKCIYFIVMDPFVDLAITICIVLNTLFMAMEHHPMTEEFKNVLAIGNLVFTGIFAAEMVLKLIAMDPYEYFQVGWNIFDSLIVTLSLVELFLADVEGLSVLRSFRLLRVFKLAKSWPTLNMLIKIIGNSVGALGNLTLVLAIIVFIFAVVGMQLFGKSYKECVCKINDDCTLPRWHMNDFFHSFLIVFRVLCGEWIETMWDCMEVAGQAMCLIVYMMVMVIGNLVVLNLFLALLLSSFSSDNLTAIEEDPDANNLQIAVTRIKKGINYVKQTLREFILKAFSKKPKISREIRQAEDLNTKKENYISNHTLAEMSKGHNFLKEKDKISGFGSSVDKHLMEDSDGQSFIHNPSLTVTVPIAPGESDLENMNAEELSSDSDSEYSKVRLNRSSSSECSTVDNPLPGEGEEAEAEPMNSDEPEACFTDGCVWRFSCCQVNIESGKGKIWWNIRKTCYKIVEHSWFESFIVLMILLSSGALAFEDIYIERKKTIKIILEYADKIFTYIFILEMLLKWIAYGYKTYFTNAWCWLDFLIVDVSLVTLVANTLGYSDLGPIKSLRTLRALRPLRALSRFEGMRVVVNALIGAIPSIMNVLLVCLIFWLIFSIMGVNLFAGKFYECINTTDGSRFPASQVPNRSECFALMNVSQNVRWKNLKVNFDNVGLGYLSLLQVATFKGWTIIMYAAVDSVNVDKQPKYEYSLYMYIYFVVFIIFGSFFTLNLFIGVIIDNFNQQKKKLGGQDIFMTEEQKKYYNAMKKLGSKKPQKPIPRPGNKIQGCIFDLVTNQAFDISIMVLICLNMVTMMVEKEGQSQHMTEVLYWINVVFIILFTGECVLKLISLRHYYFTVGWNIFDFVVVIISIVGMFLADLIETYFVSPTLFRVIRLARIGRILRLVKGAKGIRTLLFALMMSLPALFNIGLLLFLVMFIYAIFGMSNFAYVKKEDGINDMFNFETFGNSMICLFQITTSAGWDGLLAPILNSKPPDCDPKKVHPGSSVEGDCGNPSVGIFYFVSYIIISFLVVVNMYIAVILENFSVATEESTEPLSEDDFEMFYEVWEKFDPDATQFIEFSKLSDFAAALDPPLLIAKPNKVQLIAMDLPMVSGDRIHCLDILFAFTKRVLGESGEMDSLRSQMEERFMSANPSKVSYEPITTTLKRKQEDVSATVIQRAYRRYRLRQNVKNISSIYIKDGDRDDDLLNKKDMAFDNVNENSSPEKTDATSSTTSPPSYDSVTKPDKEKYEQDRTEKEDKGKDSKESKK

Row | IC50 [1] | IC50 [2] | Structure (SMILES)
1 |  | 232 µM | CCc1cn2nc(Oc3cc(F)c(C(=O)NS(C)(=O)=O)cc3F)ccc2n1 [Example 180, 4-[(2-ethylimidazo[1,2-b]pyridazin-6-yl)oxy]-2,5-difluoro-N-(methylsulfonyl)benzamide]
2 |  | > 323 µM | Cc1cc(Oc2cc(F)c(C(=O)NS(C)(=O)=O)cc2F)nc(C)n1 [Example 183, 4-[(2,6-dimethylpyrimidin-4-yl)oxy]-2,5-difluoro-N-(methylsulfonyl)benzamide]
3 | 4.4 µM |  | CS(=O)(=O)NC(=O)c1cc(F)c(Oc2ccc(Cl)cn2)cc1F [Example 184, 4-[(5-chloropyridin-2-yl)oxy]-2,5-difluoro-N-(methylsulfonyl)benzamide]
4 |  | > 323 µM | Cc1cc(C#N)nc(Oc2cc(F)c(C(=O)NS(C)(=O)=O)cc2F)c1 [Example 185, 4-[(6-cyano-4-methylpyridin-2-yl)oxy]-2,5-difluoro-N-(methylsulfonyl)benzamide]
5 |  | > 323 µM | Cc1cc(N(C)C)nc(Oc2cc(F)c(C(=O)NS(C)(=O)=O)cc2F)n1 [Example 186, 4-{[4-(dimethylamino)-6-methylpyrimidin-2-yl]oxy}-2,5-difluoro-N-(methylsulfonyl)benzamide]
6 | > 3 µM |  | Cc1nc2ccccc2nc1Oc1cc(F)c(C(=O)NS(C)(=O)=O)cc1F [Example 187, 2,5-difluoro-4-[(3-methylquinoxalin-2-yl)oxy]-N-(methylsulfonyl)benzamide]
7 |  | 29.3 µM | COc1ccc2nc(Oc3cc(F)c(C(=O)NS(C)(=O)=O)cc3F)ccc2c1 [Example 190, 2,5-difluoro-4-[(6-methoxyquinolin-2-yl)oxy]-N-(methylsulfonyl)benzamide]
8 | 3.1 µM |  | CS(=O)(=O)NC(=O)c1cc(F)c(Oc2ccc(C(F)(F)F)cn2)cc1F [Example 194, 2,5-difluoro-N-(methylsulfonyl)-4-{[5-(trifluoromethyl)pyridin-2-yl]oxy}benzamide]
9 |  | > 323 µM | CS(=O)(=O)NC(=O)c1cc(F)c(Oc2nncc3ccccc23)cc1F [Example 195, 2,5-difluoro-N-(methylsulfonyl)-4-(phthalazin-1-yloxy)benzamide]
10 | > 3 µM |  | Cc1cc2ccccc2nc1Oc1cc(F)c(C(=O)NS(C)(=O)=O)cc1F [Example 196, 2,5-difluoro-4-[(3-methylquinolin-2-yl)oxy]-N-(methylsulfonyl)benzamide]
11 |  | > 323 µM | Cc1cc(Oc2cc(F)c(C(=O)NS(C)(=O)=O)cc2F)ncn1 [Example 199, 2,5-difluoro-4-[(6-methylpyrimidin-4-yl)oxy]-N-(methylsulfonyl)benzamide]
12 |  | 173 µM | COc1cc(Oc2cc(F)c(C(=O)NS(C)(=O)=O)cc2F)ncn1 [Example 200, 2,5-difluoro-4-[(6-methoxypyrimidin-4-yl)oxy]-N-(methylsulfonyl)benzamide]

Further lines, the compound ahead of its results:

Row | Structure (SMILES) | IC50 [1] | IC50 [2]
13 | CN(CC1CC1)c1ncc(Oc2cc(F)c(C(=O)NS(C)(=O)=O)cc2F)cc1Cl [Example 141, 4-({5-chloro-6-[(cyclopropylmethyl)(methyl)amino]pyridin-3-yl}oxy)-2,5-difluoro-N-(methylsulfonyl)benzamide] | 0.27 µM | 
14 | CS(=O)(=O)NC(=O)c1cc(F)c(Oc2cnc(N3CCCCC3)c(Cl)c2)cc1F [Example 142, 4-[(5-chloro-6-piperidin-1-ylpyridin-3-yl)oxy]-2,5-difluoro-N-(methylsulfonyl)benzamide] | 0.17 µM | 
15 | COCCNc1ncc(Oc2cc(F)c(C(=O)NS(C)(=O)=O)cc2F)cc1Cl [Example 143, 4-({5-chloro-6-[(2-methoxyethyl)amino]pyridin-3-yl}oxy)-2,5-difluoro-N-(methylsulfonyl)benzamide] | > 1 µM | 
16 | CS(=O)(=O)NC(=O)c1cc(F)c(Oc2cnc(N[C@@H]3CCC[C@H]3F)c(Cl)c2)cc1F [Example 144, 4-[(5-chloro-6-{[(1R,2R)-2-fluorocyclopentyl]amino}pyridin-3-yl)oxy]-2,5-difluoro-N-(methylsulfonyl)benzamide] | 0.49 µM | 
17 | CS(=O)(=O)NC(=O)c1cc(F)c(Oc2cnc(NC3CCCOC3)c(Cl)c2)cc1F (stereo not shown) [Example 145, 4-{[5-chloro-6-(tetrahydro-2H-pyran-3-ylamino)pyridin-3-yl]oxy}-2,5-difluoro-N-(methylsulfonyl)benzamide] | 0.81 µM | 
18 | CS(=O)(=O)NC(=O)c1cc(F)c(Oc2cnc(N3CCCC3)c(Cl)c2)cc1F [Example 146, 4-[(5-chloro-6-pyrrolidin-1-ylpyridin-3-yl)oxy]-2,5-difluoro-N-(methylsulfonyl)benzamide] | 0.076 µM | 
19 | CCN(CC)c1ncc(Oc2cc(F)c(C(=O)NS(C)(=O)=O)cc2F)cc1Cl [Example 150, 4-{[5-chloro-6-(diethylamino)pyridin-3-yl]oxy}-2,5-difluoro-N-(methylsulfonyl)benzamide] | 0.22 µM | 
20 | CS(=O)(=O)NC(=O)c1cc(F)c(Oc2ncccc2C(F)(F)F)cc1F [Example 182, 2,5-difluoro-N-(methylsulfonyl)-4-{[3-(trifluoromethyl)pyridin-2-yl]oxy}benzamide] | > 3 µM | 
21 | Cc1nccnc1Oc1cc(F)c(C(=O)NS(C)(=O)=O)cc1F [Example 189, 2,5-difluoro-4-[(3-methylpyrazin-2-yl)oxy]-N-(methylsulfonyl)benzamide] |  | 232 µM
22 | CC(C)c1nccnc1Oc1cc(F)c(C(=O)NS(C)(=O)=O)cc1F [Example 193, 2,5-difluoro-4-[(3-isopropylpyrazin-2-yl)oxy]-N-(methylsulfonyl)benzamide] | 2.1 µM | 
23 | CCCc1ncc(F)c(Oc2cc(F)c(C(=O)NS(C)(=O)=O)cc2F)n1 [Example 197, 2,5-difluoro-4-[(5-fluoro-2-propylpyrimidin-4-yl)oxy]-N-(methylsulfonyl)benzamide] |  | > 323 µM
24 | CS(=O)(=O)NC(=O)c1cc(F)c(Oc2ncc(Cl)cn2)cc1F [Example 198, 4-[(5-chloropyrimidin-2-yl)oxy]-2,5-difluoro-N-(methylsulfonyl)benzamide] |  | > 323 µM
25 | CS(=O)(=O)NC(=O)c1ccc(Oc2ccc3ccccc3n2)c(C#N)c1 [Example L34, 3-cyano-N-(methylsulfonyl)-4-(quinolin-2-yloxy)benzamide] |  | 222 µM
26 | CS(=O)(=O)NC(=O)c1ccc(Oc2cnc3ccccc3c2)c(C#N)c1 [Example L35, 3-cyano-N-(methylsulfonyl)-4-(quinolin-3-yloxy)benzamide] |  | 50.2 µM
27 | CS(=O)(=O)NC(=O)c1ccc(Oc2nccc3ccccc23)c(Cl)c1 [Example L36, 3-chloro-4-(isoquinolin-1-yloxy)-N-(methylsulfonyl)benzamide] |  | > 323 µM
28 | CS(=O)(=O)NC(=O)c1ccc(Oc2cncc3ccccc23)c(C#N)c1 [Example L37, 3-cyano-4-(isoquinolin-4-yloxy)-N-(methylsulfonyl)benzamide] |  | > 323 µM
29 | CS(=O)(=O)NC(=O)c1cc(Cl)c(Oc2nccc3ccccc23)cc1F [Example L38, 5-chloro-2-fluoro-4-(isoquinolin-1-yloxy)-N-(methylsulfonyl)benzamide] |  | > 323 µM
30 | CS(=O)(=O)NC(=O)c1ccc(Oc2cc3ccccc3cn2)c(C#N)c1 [Example L43, 3-cyano-4-(isoquinolin-3-yloxy)-N-(methylsulfonyl)benzamide] |  | 41 µM
31 | Cn1cnc2cccc(Oc3cc(F)c(C(=O)NS(C)(=O)=O)cc3Cl)c21 [Example L44, 5-chloro-2-fluoro-4-[(1-methyl-1H-benzimidazol-7-yl)oxy]-N-(methylsulfonyl)benzamide] |  | > 323 µM

Source: patent publication US8592629B2, “Sulfonamide derivatives as Nav 1.7 inhibitors” (Pfizer Limited, priority 2010, dated 2013)
